{
  "source": "paper PMC10590383",
  "about": "“Repurposing conformational changes in ANL superfamily enzymes to rapidly generate biosensors for organic and amino acids” (Nature Communications, 2023)",
  "key": {"[1]": {"test": "Substrate (ligand) specificity of […]s", "format": "biochemical", "settings": "for fluorescence response of GECFINDER to each substrate, AVE of 3 repeats: Supplementary Fig. 3 c, substrate specificity; for AVE of Repeat 1-3, sensor signal with ligand (Supplementary Fig. 7 c): 1 mM ligand, Control AVE 12117.3", "protocol": "Fig. 4 Engineering ligand specificity of GrsA-PheA for generating […]s. a The selectivity-conferring code of Phe and Leu A domains. b–f Dose–response curve of purified […]s with increasing concentrations of ligands in 100 mM Tris-HCl buffer (pH=7.5). All data shown are means ± S.D. (n = 3 biologically independent samples). g A series of […] reactions was tested to show the […]’s specificity with 20 proteinogenic amino acids. The values on the heatmap represent the ΔF/F0 value normalized to each […]’s maximal ΔF/F0 value ((ΔF/F0)/maximal ΔF/F0). The concentrations of 20 amino acids were 100 μM. The color indicates the average value of three independent biological replicates after 15 min. All data shown are means ± S.D. (n = 3 biologically independent samples). Source data are provided as a Source data file.\nLigand specificity is an important biosensors feature. Generally, the NRPS A domains have high specificity for their substrates because they are the first “gatekeeper” of NRPSs and ensure that the correct monomers are activated and thioesterified[32],[33]. Therefore, we speculated that this property would be inherited by our […]s because the ligand-binding pockets were unchanged during the […] creation process. Twenty proteinogenic amino acids were used to test the ligand specificity of […]s. […] We also investigated the dependence of […]s on Mg^2+ and ATP (Supplementary Fig. 4). […] This phenomenon corroborates with the distinct conformational changes observed in Hinge A of Nt4CL2 (Mg^2++ATP) (PDB ID: 5BSM) and Nt4CL2 (Coumaroyl-AMP) (PDB ID: 5BST) reported in the literature (Supplementary Fig. 4k), where the direction of motion in hinge A differs. […] During the determination of quantum yield, we observed that the absolute quantum yield of the […] variants ranged from 0.3 to 0.6 upon addition of the respective substrates, which show no significant difference with that reported in literature. The specific values are provided in Supplementary Table 2.\nThe study conducted dose–response curve, substrate specificity, and fluorescent spectrum analyses in 100-mM Tris buffer (pH = 7.5), while pH stability experiments were performed in 100-mM Tris buffer at three different pH values (6.5, 7.5, and 8.5) at room temperature. […] protein at a concentration of 0.75 μM, various small molecule concentrations, 1 mM ATP, and 2.5 mM MgCl2 were used in the experiments. Fluorescent signals were detected using a Microplate Reader (Synergy H4, Bio Tek) at an excitation/emission wavelength of 460 nm/510 nm or 480 nm/510 nm. The dose-response curve was determined immediately after the addition of the analyte. The total duration of the measurement was 15 min, with readings taken at one-minute intervals. The dose-response curve was plotted using the fluorescence values obtained after achieving stability in the fluorescence signal. The dose-response curves were fitted using the logistic model LOGISTIC5 available in Origin 2021, which could provide a more adequate fit to asymmetric dose-response data[62],[63]. Excitation spectra were scanned from 300 to 540 nm with a step size of 5 nm, and the emission wavelength was set to 560 nm. Emission spectra were scanned from 470 to 700 nm with a step size of 5 nm, and the excitation wavelength was set to 450 nm. The thermal stability of […] was analyzed using the UNcle multifunctional protein stability analysis system. Measurements were performed in 20 mM MOPS buffer with 2 mM DTT at a sample concentration of 1 mg/mL. Absolute fluorescence quantum yields were measured using an absolute photoluminescence quantum yield spectrometer (FS5, Edinburgh)."}, "[2]": {"test": "Dependence of […]s on Mg2+ and ATP (fluorescence intensity)", "format": "biochemical", "settings": "Mg+ +", "from_the_text": "Ligand specificity is an important biosensors feature. Generally, the NRPS A domains have high specificity for their substrates because they are the first “gatekeeper” of NRPSs and ensure that the correct monomers are activated and thioesterified[32],[33]. […] Twenty proteinogenic amino acids were used to test the ligand specificity of […]s. […] We also investigated the dependence of […]s on Mg^2+ and ATP (Supplementary Fig. 4).\nSupplementary Fig. 4 Dependence of GEC FINDER s on Mg2+ and ATP . a-j, Fluore scence intensities of\nGECF IN DERs in the absence of any substra te, in the pre sence of Mg2+ alone, ATP alone, both Mg2+ and ATP, Mg2+\nand ATP with re spective substra tes. Mg2+ concentra tion was 2.5 mM, and ATP concentra tion was 1 mM. a, 100 μM\ndata are provided as a Source Data file."}},
  "data": [
    {"molecule": "N[C@@H](CO)C(=O)O", "note": "[Ser]", "values": [
      {"measurement": "fluorescence response of GECFINDER to each substrate, AVE of 3 repeats", "setting": "[1]", "value": -0.004319}
    ]},
    {"molecule": "CSCC[C@H](N)C(=O)O", "note": "[Met]", "values": [
      {"measurement": "AVE of Repeat 1-3, sensor signal with ligand (Supplementary Fig. 7 c)", "setting": "[1]", "value": 12345.3},
      {"measurement": "fluorescence response of GECFINDER to each substrate, AVE of 3 repeats", "setting": "[1]", "value": 0.1232}
    ]},
    {"molecule": "N[C@@H](Cc1ccc(O)cc1)C(=O)O", "note": "[tyrosine]", "values": [
      {"measurement": "fluorescence intensity, AVE of 3 repeats", "setting": "[2]; Supplementary Fig. 4 i, ATP +, tyrosine +", "value": 9237.33}
    ]},
    {"molecule": "C[C@H](N)C(=O)O", "note": "[Ala]", "values": [
      {"measurement": "fluorescence response of GECFINDER to each substrate, AVE of 3 repeats", "setting": "[1]", "value": 0.02842}
    ]},
    {"molecule": "NCCCC[C@H](N)C(=O)O", "note": "[Lys]", "values": [
      {"measurement": "fluorescence response of GECFINDER to each substrate, AVE of 3 repeats", "setting": "[1]", "value": -0.005837}
    ]},
    {"molecule": "N=C(N)NCCC[C@H](N)C(=O)O", "note": "[Arg]", "values": [
      {"measurement": "fluorescence response of GECFINDER to each substrate, AVE of 3 repeats", "setting": "[1]", "value": 0.01953}
    ]},
    {"molecule": "NC(=O)C[C@H](N)C(=O)O", "note": "[Asn]", "values": [
      {"measurement": "fluorescence response of GECFINDER to each substrate, AVE of 3 repeats", "setting": "[1]", "value": 0.01237}
    ]},
    {"molecule": "NC(=O)CC[C@H](N)C(=O)O", "note": "[Gln]", "values": [
      {"measurement": "fluorescence response of GECFINDER to each substrate, AVE of 3 repeats", "setting": "[1]", "value": 0.009843}
    ]},
    {"molecule": "NCC(=O)O", "note": "[Gly]", "values": [
      {"measurement": "fluorescence response of GECFINDER to each substrate, AVE of 3 repeats", "setting": "[1]", "value": 0.007359}
    ]},
    {"molecule": "C[C@@H](O)[C@H](N)C(=O)O", "note": "[Thr]", "values": [
      {"measurement": "fluorescence response of GECFINDER to each substrate, AVE of 3 repeats", "setting": "[1]", "value": -0.00888}
    ]},
    {"molecule": "N[C@@H](Cc1c[nH]cn1)C(=O)O", "note": "[histidine]", "values": [
      {"measurement": "fluorescence intensity, AVE of 3 repeats", "setting": "[2]; Supplementary Fig. 4 f, ATP +, histidine +", "value": 33756}
    ]},
    {"molecule": "N[C@@H](CC(=O)O)C(=O)O", "note": "[Asp]", "values": [
      {"measurement": "fluorescence response of GECFINDER to each substrate, AVE of 3 repeats", "setting": "[1]", "value": 0.02069}
    ]},
    {"molecule": "N[C@@H](Cc1c[nH]c2ccccc12)C(=O)O", "note": "[Trp]", "values": [
      {"measurement": "AVE of Repeat 1-3, sensor signal with ligand (Supplementary Fig. 7 c)", "setting": "[1]", "value": 11938.7},
      {"measurement": "fluorescence response of GECFINDER to each substrate, AVE of 3 repeats", "setting": "[1]", "value": -0.01712}
    ]},
    {"molecule": "[Mg+2]", "note": "[Mg+]", "values": [
      {"measurement": "fluorescence intensity, AVE of 3 repeats", "setting": "[2]; Supplementary Fig. 4 a, ATP -, 4-coumaric acid -", "value": 2849},
      {"measurement": "fluorescence intensity, AVE of 3 repeats", "setting": "[2]; Supplementary Fig. 4 b, ATP -, phenylalanine -", "value": 6591},
      {"measurement": "fluorescence intensity, AVE of 3 repeats", "setting": "[2]; Supplementary Fig. 4 c, ATP -, glutamine -", "value": 17660},
      {"measurement": "fluorescence intensity, AVE of 3 repeats", "setting": "[2]; Supplementary Fig. 4 e, ATP -, isoleucine -", "value": 12580},
      {"measurement": "fluorescence intensity, AVE of 3 repeats", "setting": "[2]; Supplementary Fig. 4 f, ATP -, histidine -", "value": 26018},
      {"measurement": "fluorescence intensity, AVE of 3 repeats", "setting": "[2]; Supplementary Fig. 4 g, ATP -, leucine -", "value": 6350.33},
      {"measurement": "fluorescence intensity, AVE of 3 repeats", "setting": "[2]; Supplementary Fig. 4 i, ATP -, tyrosine -", "value": 5977},
      {"measurement": "fluorescence intensity, AVE of 3 repeats", "setting": "[2]; Supplementary Fig. 4 j, ATP -, phenylalanine -", "value": 7671.67},
      {"measurement": "fluorescence intensity, AVE of 3 repeats", "setting": "[2]; Supplementary Fig. 4 h, ATP -, S-β-phenylalanine -", "value": 5046.33},
      {"measurement": "fluorescence intensity, AVE of 3 repeats", "setting": "[2]; Supplementary Fig. 4 d, ATP -, proline -", "value": 43559.3}
    ]},
    {"molecule": "CC(C)[C@H](N)C(=O)O", "note": "[Val]", "values": [
      {"measurement": "fluorescence response of GECFINDER to each substrate, AVE of 3 repeats", "setting": "[1]", "value": -0.02124}
    ]},
    {"molecule": "O=C(O)[C@@H]1CCCN1", "note": "[proline]", "values": [
      {"measurement": "fluorescence intensity, AVE of 3 repeats", "setting": "[2]; Supplementary Fig. 4 d, ATP +, proline +", "value": 54621.3}
    ]},
    {"molecule": "CC[C@H](C)[C@H](N)C(=O)O", "note": "[isoleucine]", "values": [
      {"measurement": "fluorescence intensity, AVE of 3 repeats", "setting": "[2]; Supplementary Fig. 4 e, ATP +, isoleucine +", "value": 15546}
    ]},
    {"molecule": "N[C@@H](CC(=O)O)c1ccccc1", "note": "[S-β-phenylalanine]", "values": [
      {"measurement": "fluorescence intensity, AVE of 3 repeats", "setting": "[2]; Supplementary Fig. 4 h, ATP +, S-β-phenylalanine +", "value": 22066}
    ]},
    {"molecule": "N[C@@H](CS)C(=O)O", "note": "[Cys]", "values": [
      {"measurement": "fluorescence response of GECFINDER to each substrate, AVE of 3 repeats", "setting": "[1]", "value": -0.0008412}
    ]},
    {"molecule": "N[C@@H](Cc1ccccc1)C(=O)O", "note": "[phenylalanine]", "values": [
      {"measurement": "fluorescence intensity, AVE of 3 repeats", "setting": "[2]; Supplementary Fig. 4 b, ATP +, phenylalanine +", "value": 39284.7},
      {"measurement": "fluorescence intensity, AVE of 3 repeats", "setting": "[2]; Supplementary Fig. 4 j, ATP +, phenylalanine +", "value": 31788}
    ]}
  ]
}
